According to article PMC4901301 (Scientific Reports, 2016):
Converted amounts (≈) assume the structure as drawn. Like-named read-outs stand apart in the source and are kept apart here.

Legend:
Mtb gyrase = Mtb gyrase (Mycobacterium tuberculosis, UniProt P9WG45); assay: Mtb gyrase supercoiling assay; format: biochemical
Description: Mtb gyrase supercoiling assays were carried out as described previously.

Mtb ThyX = Mtb ThyX (Mycobacterium tuberculosis, UniProt P9WG57); assay: Mtb ThyX tritium release assay; format: biochemical; conditions: for % of ThyX inhibition at 100 µM: actual measured data; for Ki: read-out: Ki against Mtb ThyX
Mtb H37Rv [1] = assay: Resazurin (Alamar Blue) drug susceptibility testing, H37Rv; format: cell-based, Mycobacterium tuberculosis
Mtb TH 12526 = assay: Resazurin (Alamar Blue) drug susceptibility testing, TH 12526; format: cell-based, Mycobacterium tuberculosis
Mtb H37Rv [2] = assay: Broth microdilution susceptibility of Mtb H37Rv; format: cell-based, Mycobacterium tuberculosis; conditions: replicating Mtb H37Rv, read-out: MIC90 (µM) against H37Rv
Mtb = system: Mtb; parameters: method as in earlier work; conditions: cited from earlier work
[3] = menadione analogs, 7H9 media with 1% ethanol as a co-solvent, read-out: MIC (H37Rv)

Chain of Mtb gyrase (P9WG47 whole entry): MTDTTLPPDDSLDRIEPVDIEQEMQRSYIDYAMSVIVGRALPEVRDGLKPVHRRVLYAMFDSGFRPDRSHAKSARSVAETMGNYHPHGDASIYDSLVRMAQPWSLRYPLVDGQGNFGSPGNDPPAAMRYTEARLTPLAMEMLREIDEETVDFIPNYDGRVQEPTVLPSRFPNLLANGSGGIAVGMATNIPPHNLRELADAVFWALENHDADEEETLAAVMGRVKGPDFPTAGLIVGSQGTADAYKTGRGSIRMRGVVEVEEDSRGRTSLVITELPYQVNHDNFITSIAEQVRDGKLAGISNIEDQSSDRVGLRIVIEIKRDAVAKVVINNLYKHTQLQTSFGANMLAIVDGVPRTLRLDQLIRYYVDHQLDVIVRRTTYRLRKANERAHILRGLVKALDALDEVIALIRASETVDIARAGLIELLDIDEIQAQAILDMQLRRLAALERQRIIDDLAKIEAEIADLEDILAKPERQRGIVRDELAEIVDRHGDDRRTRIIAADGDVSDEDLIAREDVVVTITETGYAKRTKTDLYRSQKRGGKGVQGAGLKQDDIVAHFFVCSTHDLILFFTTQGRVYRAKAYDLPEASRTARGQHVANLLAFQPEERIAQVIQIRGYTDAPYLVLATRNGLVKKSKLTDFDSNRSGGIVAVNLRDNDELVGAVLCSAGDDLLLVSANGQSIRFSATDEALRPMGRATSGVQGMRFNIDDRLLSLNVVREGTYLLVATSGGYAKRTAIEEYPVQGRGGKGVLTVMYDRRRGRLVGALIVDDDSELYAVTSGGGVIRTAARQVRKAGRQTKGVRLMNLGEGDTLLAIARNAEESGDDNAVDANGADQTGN
Chain of Mtb gyrase (P9WG45 whole entry): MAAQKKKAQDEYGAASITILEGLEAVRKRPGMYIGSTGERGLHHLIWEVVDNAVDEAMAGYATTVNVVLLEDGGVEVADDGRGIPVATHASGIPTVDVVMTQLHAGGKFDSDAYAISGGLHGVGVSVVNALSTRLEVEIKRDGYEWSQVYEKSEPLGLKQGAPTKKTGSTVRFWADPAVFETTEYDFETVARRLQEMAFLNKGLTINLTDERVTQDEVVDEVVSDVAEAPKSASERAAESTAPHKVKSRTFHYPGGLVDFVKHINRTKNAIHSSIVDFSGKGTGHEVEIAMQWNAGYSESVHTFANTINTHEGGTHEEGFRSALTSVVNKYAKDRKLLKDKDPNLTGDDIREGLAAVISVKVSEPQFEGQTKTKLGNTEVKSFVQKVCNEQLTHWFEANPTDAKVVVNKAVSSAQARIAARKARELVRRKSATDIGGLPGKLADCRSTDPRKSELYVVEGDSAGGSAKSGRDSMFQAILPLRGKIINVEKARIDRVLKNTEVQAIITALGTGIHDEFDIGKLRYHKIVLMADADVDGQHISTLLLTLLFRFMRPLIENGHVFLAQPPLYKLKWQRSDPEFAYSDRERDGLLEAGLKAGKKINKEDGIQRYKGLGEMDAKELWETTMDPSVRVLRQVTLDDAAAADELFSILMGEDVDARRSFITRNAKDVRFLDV
Chain of Mtb ThyX (P9WG57 whole entry): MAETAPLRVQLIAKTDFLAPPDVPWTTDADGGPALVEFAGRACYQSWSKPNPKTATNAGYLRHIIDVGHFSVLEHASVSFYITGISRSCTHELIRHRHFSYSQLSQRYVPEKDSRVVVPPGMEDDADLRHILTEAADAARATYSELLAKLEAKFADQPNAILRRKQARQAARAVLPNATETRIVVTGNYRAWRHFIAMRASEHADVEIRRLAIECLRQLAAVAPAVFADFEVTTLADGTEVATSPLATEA

CCOCCOC(=O)COc1ccc2c(-c3ccccc3)cc(=O)oc2c1 [2-ethoxyethyl [(2-oxo-4-phenyl-2H-chromen-7-yl)oxy]acetate]
Activity against gyrase at 100 uM (Mtb gyrase): no activity

Cc1cc(O)c2c(c1)C(=O)C=CC2=O [7-methyljuglone, reference compound]
Activity against Mtb ThyX (in words) (Mtb ThyX): active
IC50 (Mtb ThyX): 35 µM
Activity against Mtb gyrase (in words) (Mtb gyrase): active
IC50 (Mtb gyrase): 30 µM

O=C1C(Br)=CC(=O)c2c(O)cccc21 [Compound 2E04]
Activity against Mtb ThyX (in words) (Mtb ThyX): inhibit
IC50 (Mtb ThyX): 5 µM
Activity against Mtb gyrase (in words) (Mtb gyrase): inactive
IC50 (Mtb gyrase): > 50 µM

O=C1C(O)=C(Cc2ccc(-c3ccc(Cl)cc3)cc2)C(=O)c2ccccc21 [Compound 007B]
MIC (Mtb H37Rv [1]; H37Rv, read-out: MIC): 20.8 µM (≈ 7.8 µg/mL)
% of ThyX inhibition at 100 µM (Mtb ThyX): 21%
MIC (Mtb TH 12526; TH 12526, read-out: MIC): 41.7 µM (≈ 15.6 µg/mL)

O=C1C(O)=C(Cc2ccc(OC(F)(F)F)cc2)C(=O)c2ccccc21 [Compound 007C]
MIC (Mtb H37Rv [1]; H37Rv, read-out: MIC): 89.7 µM (≈ 31.2 µg/mL)
% of ThyX inhibition at 100 µM (Mtb ThyX): 78%
MIC (Mtb TH 12526; TH 12526, read-out: MIC): 44.9 µM (≈ 15.6 µg/mL)

CC(C)Oc1ccc(CC2=C(O)C(=O)c3ccccc3C2=O)cc1 [Compound 007D]
MIC (Mtb H37Rv [1]; read-out: MIC): 96.9 µM (≈ 31.2 µg/mL)
% of ThyX inhibition at 100 µM (Mtb ThyX): 71%
MIC (Mtb TH 12526; TH 12526, read-out: MIC): 96.9 µM (≈ 31.2 µg/mL)

O=C1C(O)=C(Cc2ccc(C(F)(F)F)cc2)C(=O)c2ccccc21 [Compound 007F]
MIC (Mtb H37Rv [1]; read-out: MIC): 94.1 µM (≈ 31.3 µg/mL)
% of ThyX inhibition at 100 µM (Mtb ThyX): 74%
MIC (Mtb TH 12526; TH 12526, read-out: MIC): 47.0 µM (≈ 15.6 µg/mL)

O=C1C(O)=C(Cc2ccc(Oc3ccccc3)cc2)C(=O)c2ccccc21 [Compound 007G]
MIC (Mtb H37Rv [1]; read-out: MIC): 175.5 µM (≈ 62.5 µg/mL)
% of ThyX inhibition at 100 µM (Mtb ThyX): 89%
MIC (Mtb TH 12526; TH 12526, read-out: MIC): 87.8 µM (≈ 31.3 µg/mL)

O=C1C(O)=C(Cc2ccc(Cl)cc2)C(=O)c2ccccc21 [Compound 010A]
MIC (Mtb H37Rv [1]; read-out: MIC): 52.3 µM (≈ 15.6 µg/mL)
% of ThyX inhibition at 100 µM (Mtb ThyX): 64%
MIC (Mtb TH 12526; TH 12526, read-out: MIC): 52.3 µM (≈ 15.6 µg/mL)

O=C1C(O)=C(Cc2cc(F)cc(F)c2)C(=O)c2ccccc21 [Compound 010B]
MIC (Mtb H37Rv [1]; read-out: MIC): 104.1 µM (≈ 31.3 µg/mL)
% of ThyX inhibition at 100 µM (Mtb ThyX): 68%
MIC (Mtb TH 12526; TH 12526, read-out: MIC): 104.1 µM (≈ 31.3 µg/mL)

O=C1C(O)=C(Cc2ccco2)C(=O)c2ccccc21 [Compound 010C]
MIC (Mtb H37Rv [1]; read-out: MIC): 176.5 µM (≈ 44.9 µg/mL)
% of ThyX inhibition at 100 µM (Mtb ThyX): 60%
MIC (Mtb TH 12526; TH 12526, read-out: MIC): 176.5 µM (≈ 44.9 µg/mL)

O=C1C(O)=C(Cc2cccs2)C(=O)c2ccccc21 [Compound 010D]
MIC (Mtb H37Rv [1]; read-out: MIC): 231.2 µM (≈ 62.5 µg/mL)
% of ThyX inhibition at 100 µM (Mtb ThyX): 42%
MIC (Mtb TH 12526; TH 12526, read-out: MIC): 231.2 µM (≈ 62.5 µg/mL)

O=C1C(O)=C(Cc2ccc(F)c(C(F)(F)F)c2)C(=O)c2ccccc21 [Compound 010E]
MIC (Mtb H37Rv [1]; read-out: MIC): 22.3 µM (≈ 7.81 µg/mL)
% of ThyX inhibition at 100 µM (Mtb ThyX): 32%
MIC (Mtb TH 12526; TH 12526, read-out: MIC): 22.3 µM (≈ 7.81 µg/mL)

O=C1C(O)=C(Cc2ccc(F)c(Cl)c2)C(=O)c2ccccc21 [Compound 010F]
MIC (Mtb H37Rv [1]; read-out: MIC): 197.3 µM (≈ 62.5 µg/mL)
% of ThyX inhibition at 100 µM (Mtb ThyX): 73%
MIC (Mtb TH 12526; TH 12526, read-out: MIC): 98.7 µM (≈ 31.3 µg/mL)

COc1cc(CC2=C(O)C(=O)c3ccccc3C2=O)ccc1O [Compound 010H]
MIC (Mtb H37Rv [1]; read-out: MIC): 201.4 µM (≈ 62.5 µg/mL)
% of ThyX inhibition at 100 µM (Mtb ThyX): 41%
MIC (Mtb TH 12526; TH 12526, read-out: MIC): 201.4 µM (≈ 62.5 µg/mL)

CCCCC1=C(O)C(=O)c2ccccc2C1=O [Compound 010I]
MIC (Mtb H37Rv [1]; read-out: MIC): 135.7 µM (≈ 31.2 µg/mL)
% of ThyX inhibition at 100 µM (Mtb ThyX): 58%
MIC (Mtb TH 12526; TH 12526, read-out: MIC): 67.8 µM (≈ 15.6 µg/mL)

COc1ccc(CC2=C(O)C(=O)c3ccccc3C2=O)cc1OC [Compound 010K]
MIC (Mtb H37Rv [1]; read-out: MIC): 192.7 µM (≈ 62.5 µg/mL)
% of ThyX inhibition at 100 µM (Mtb ThyX): 42%
MIC (Mtb TH 12526; TH 12526, read-out: MIC): 48.2 µM (≈ 15.6 µg/mL)

CCOC(=O)C1=C(c2ccc(C)cc2)C(=O)c2ccccc2C1=O [Compound B6, ethyl 3-(4-methylphenyl)-1,4-dioxonaphtalene-2-carboxylate]
MIC90 (Mtb H37Rv [2]; Mycobacterium tuberculosis): 62.5 µM (≈ 20 µg/mL)
Ki (Mtb ThyX; from dose response curves versus ThyX): 4.5 µM

COc1ccc(CC2=C(O)C(=O)c3ccccc3C2=O)cc1 [Compound C8-C1]
Activity against Mtb ThyX (in words) (Mtb ThyX): inhibit
IC50 (Mtb ThyX): 4.5 µM
Activity against Mtb gyrase (in words) (Mtb gyrase): inactive
IC50 gyrase (Mtb gyrase): No inhibition

O=C1C=C(Cc2ccc(F)cc2)C(=O)c2ccccc21 [Compound D4]
MIC90 (Mtb H37Rv [2]): 31.2 µM (≈ 8.31 µg/mL)

COc1ccc(CC2=CC(=O)c3ccccc3C2=O)cc1 [Compound D5]
MIC90 (Mtb H37Rv [2]): 62.5 µM (≈ 17.4 µg/mL)

CS(=O)(=O)N1CCN(C2=C(Cl)C(=O)c3ccccc3C2=O)CC1 [Compound E1, 2-chloro-3-(4-methanesulfonylpiperazin-1-yl)-1,4-dihydronaphthalene-1,4-dione]
MIC90 (Mtb H37Rv [2]; Mycobacterium tuberculosis): 62.5 µM (≈ 22.2 µg/mL)

CC(=O)N(C1=C(Cl)C(=O)c2ccccc2C1=O)c1cccc(F)c1 [Compound E10]
MIC90 (Mtb H37Rv [2]): 31.2 µM (≈ 10.7 µg/mL)

O=C1C(Cl)=C(N2CCN(C(=O)c3ccc(F)cc3)CC2)C(=O)c2ccccc21 [Compound F1]
MIC90 (Mtb H37Rv [2]): 31.2 µM (≈ 12.4 µg/mL)

CCS(=O)(=O)N1CCN(C2=C(Cl)C(=O)c3ccccc3C2=O)CC1 [Compound F2]
MIC90 (Mtb H37Rv [2]): 31.2 µM (≈ 11.5 µg/mL)

Cc1cc(O)c2c(c1)C(=O)C(c1c(C)cc3c(c1O)C(=O)C=CC3=O)=CC2=O [Diospyrin, reference compound]
IC50 ThyX (Mtb ThyX): No inhibition
Activity against Mtb gyrase (in words) (Mtb gyrase): inhibits
IC50 (Mtb gyrase): 15 µM

NNC(=O)c1ccncc1 [INH, isoniazid, reference compound]
MIC (Mtb H37Rv [1]; Mycobacterium tuberculosis, H37RV, read-out: MIC): < 0.91 µM
MIC (Mtb): 0.25 mg/L (≈ 1.82 µM)
MIC (Mtb TH 12526; Mycobacterium tuberculosis, TH12526, TH 12526, read-out: MIC): < 0.91 µM

COC1=C(OC)C(=O)C(CCCCCCCCCCO)=C(C)C1=O [Idebenone, idebenone, reference compound]
MIC90 (Mtb H37Rv [2]; Mycobacterium tuberculosis): 125 µM (≈ 42.3 µg/mL)
MIC90 (Mtb H37Rv [2]): 125 µM (≈ 42.3 µg/mL)
Ki (Mtb ThyX; uncompetitive with respect to dUMP, converted from measured IC50): 3.3 µM
Mode of inhibition of Mtb ThyX (Mtb ThyX; with respect to dUMP): uncompetitive

Cc1cc2c(c(O)c1-c1c(C)cc(O)c3c1C(=O)C=CC3=O)C(=O)C=CC2=O [Isodiospyrin, reference compound]
IC50 (Mtb gyrase): 100 µM

CC(C)=CCC/C(C)=C/CC/C(C)=C/CC/C(C)=C/CC/C(C)=C/CC/C(C)=C/CC/C(C)=C/CC/C(C)=C/CC/C(C)=C/CC1=C(C)C(=O)c2ccccc2C1=O [MK-9, reference compound]
MIC (Mtb H37Rv [1]; [3]): > 6.4 µM

CC1(S(=O)(=O)[O-])CC(=O)c2ccccc2C1=O.[Na+] (stereo not shown) [Menadione Bisulfate, reference compound]
MIC (Mtb H37Rv [1]; [3]): 311.3 µM

CC1=CC(=O)c2ccccc2C1=O [Menadione, reference compound]
MIC (Mtb H37Rv [1]; Mycobacterium tuberculosis, H37RV, menadione analogs, 7H9 media with 1% ethanol as a co-solvent, read-out: MIC (H37Rv)): 98.8 µM (≈ 17 µg/mL)
Activity against Mtb gyrase (in words) (Mtb gyrase): inactive

Cc1cc(O)c2c(c1)C(=O)C=C(c1c(C)cc(O)c3c1C(=O)C=CC3=O)C2=O [Neodiospyrin, reference compound]
IC50 (Mtb ThyX): 20 µM
IC50 (Mtb gyrase): 50 µM

CO[C@H]1/C=C/O[C@@]2(C)Oc3c(C)c(O)c4c(O)c(c(/C=N/N5CCN(C)CC5)c(O)c4c3C2=O)NC(=O)/C(C)=C\C=C\[C@H](C)[C@H](O)[C@@H](C)[C@@H](O)[C@@H](C)[C@H](OC(C)=O)[C@@H]1C [RMP, rifampicin, reference compound]
MIC (Mtb): 0.5 mg/L (≈ 0.608 µM)
MIC (Mtb TH 12526; Mycobacterium tuberculosis, TH12526): < 0.3 µM

CCCCc1cc(=O)oc2cc(OCC(=O)OCc3ccccc3)c(Cl)cc12 [benzyl [(4-butyl-6-chloro-2-oxo-2H-chromen-7-yl)oxy]acetate]
Activity against gyrase at 100 uM (Mtb gyrase): no activity

CCOC(=O)COc1cc2oc(=O)cc(CC)c2cc1Cl [ethyl [(6-chloro-4-ethyl-2-oxo-2H-chromen-7-yl)oxy]acetate]
Activity against gyrase at 100 uM (Mtb gyrase): no activity

COC(=O)COc1cc2oc(=O)cc(-c3ccccc3)c2cc1Cl [methyl [(6-chloro-2-oxo-4-phenyl-2H-chromen-7-yl)oxy]acetate]
Activity against gyrase at 100 uM (Mtb gyrase): no activity

CCCc1cc(=O)oc2cc(OCC(=O)OC)c(Cl)cc12 [methyl [(6-chloro-2-oxo-4-propyl-2H-chromen-7-yl)oxy]acetate]
Activity against gyrase at 100 uM (Mtb gyrase): no activity

CCc1cc2c(=O)c(-c3ccc(OC)cc3)coc2cc1OCC(=O)OC [methyl {[6-ethyl-3-(4-methoxyphenyl)-4-oxo-4H-chromen-7-yl]oxy}acetate]
Activity against gyrase at 100 uM (Mtb gyrase): no activity

C=CCOC(=O)COc1cc2oc(=O)c(Cc3ccccc3)c(C)c2cc1Cl [prop-2-en-1-yl 2-[(3-benzyl-6-chloro-4-methyl-2-oxo-2H-chromen-7-yl)oxy]acetate]
Activity against gyrase at 100 uM (Mtb gyrase): no activity
